Measured values published in US6914045B2, “Glycopeptide antibiotics” (Wyeth Holdings Corporation, priority 2001, dated 2005).
Values after ≈ are worked out from the molar mass of the structure shown.

Legend:
Test in all cases: in vitro antibacterial evaluation, MIC by broth dilution
Assay type in all cases: cell-based
Staphylococcus sp. = details: broth dilution, 18 hours at 35° C.
Protocol: (§1) Methods for in vitro Antibacterial Evaluation (Table 1)
(§2) The minimum inhibitory concentration (MIC), the lowest concentration of the antibiotic which inhibits growth of the test organism, is determined by the broth dilution method using Muller-Hinton II […] (Baltimore Biological Laboratories) following the recommendations of the National Committee for Clinical Laboratory Standards [Methods for dilution antimicrobial susceptibility tests for bacteria that grow aerobically, approved standard M7-A2, National Committee for Clinical Laboratory Standards, Villanova, Pa.].
(§3) An inoculum level of 5×10^5 CFU/mL, and a range of antibiotic concentrations (64-0.06 μg/mL) is used. […] The test organisms include a spectrum of Gram-positive bacteria comprised of Staphylococcus sp., Streptococcus sp. and Enterococcus sp. These organisms include recent clinical isolates that are resistant to methicillin, penicillin and/or vancomycin.

Streptococcus sp. = details: broth dilution, 18 hours at 35° C.
Protocol: as §1, §2, §3

Enterococcus sp. = details: broth dilution, 18 hours at 35° C.
Protocol: as §1, §2, §3

Escherichia coli = details: 18 hours at 35° C.
In short: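 MIC is the lowest antibiotic concentration (tested 64-0.06 μg/mL) preventing growth of a 5×10^5 CFU/mL inoculum. Determined by broth dilution in Mueller-Hinton II medium following NCCLS standard M7-A2.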

Structure (SMILES): CCCCCCCN1CC(C(O)C2NC(=O)C(C(O)C3CNC(=N)N3)NC(=O)C(Cc3ccc(OC4OC(CO)C(OC5OC6COC7(OC6C(O)C5O)C5CC6CC(C5)CC7C6)C(O)C4O)cc3)NC(=O)C(C(C)c3ccccc3)NC(=O)CNC(=O)C(CO)NC2=O)N(C2OC(CO)C(O)C(O)C2O)C1=N (stereo not drawn) [Example 83]
- MIC Coagulase Negative Staphylococcus (GC 4547) (Staphylococcus sp.): 2 µg/mL (≈ 1.31 µM)
- MIC Coagulase Negative Staphylococcus (GC 4548) (Staphylococcus sp.): 1 µg/mL (≈ 0.655 µM)
- MIC Coagulase Negative Staphylococcus (GC 4549) (Staphylococcus sp.): 2 µg/mL (≈ 1.31 µM)
- MIC Coagulase Negative Staphylococcus (GC 4551) (Staphylococcus sp.): 2 µg/mL (≈ 1.31 µM)
- MIC Staphylococcus aureus-SMITH (GC 4543) (Staphylococcus sp.): 2 µg/mL (≈ 1.31 µM)
- MIC Staphylococcus haemolyticus (GC 4546) (Staphylococcus sp.): 2 µg/mL (≈ 1.31 µM)
- MIC Staphylococcus aureus (ATCC 29213) (Staphylococcus sp.; strain ATCC 29213): 2 µg/mL (≈ 1.31 µM)
- MIC Staphylococcus aureus (GC 1131) (Staphylococcus sp.; strain GC 1131): 4 µg/mL (≈ 2.62 µM)
- MIC Staphylococcus aureus (GC 3051) (Staphylococcus sp.; strain GC 3051): 4 µg/mL (≈ 2.62 µM)
- MIC Staphylococcus aureus (GC 3053) (Staphylococcus sp.; strain GC 3053): 4 µg/mL (≈ 2.62 µM)
- MIC Staphylococcus aureus (GC 4541) (Staphylococcus sp.; strain GC 4541): 2 µg/mL (≈ 1.31 µM)
- MIC Staphylococcus aureus (GC 4542) (Staphylococcus sp.; strain GC 4542): 4 µg/mL (≈ 2.62 µM)
- MIC Staphylococcus aureus-SMITH (GC 4543) (Staphylococcus sp.; strain GC 4543): 2 µg/mL (≈ 1.31 µM)
- MIC Staphylococcus aureus (GC 4544) (Staphylococcus sp.; strain GC 4544): 4 µg/mL (≈ 2.62 µM)
- MIC Staphylococcus aureus (GC 4545) (Staphylococcus sp.; strain GC 4545): 2 µg/mL (≈ 1.31 µM)
- MIC Staphylococcus haemolyticus (GC 4546) (Staphylococcus sp.; strain GC 4546): 2 µg/mL (≈ 1.31 µM)
- MIC Coagulase Negative Staphylococcus (GC 4547) (Staphylococcus sp.; strain GC 4547): 2 µg/mL (≈ 1.31 µM)
- MIC Coagulase Negative Staphylococcus (GC 4548) (Staphylococcus sp.; strain GC 4548): 1 µg/mL (≈ 0.655 µM)
- MIC Coagulase Negative Staphylococcus (GC 4549) (Staphylococcus sp.; strain GC 4549): 2 µg/mL (≈ 1.31 µM)
- MIC Coagulase Negative Staphylococcus (GC 4551) (Staphylococcus sp.; strain GC 4551): 2 µg/mL (≈ 1.31 µM)
- MIC Streptococcus agalactiae (GC 4564) (Streptococcus sp.): 0.25 µg/mL (≈ 0.164 µM)
- MIC Streptococcus pneumoniae (ATCC 6301) (Streptococcus sp.): 0.5 µg/mL (≈ 0.328 µM)
- MIC Streptococcus pneumoniae (GC 1894) (Streptococcus sp.): <0.12 µg/mL
- MIC Streptococcus pneumoniae (GC 4565) (Streptococcus sp.): 0.25 µg/mL (≈ 0.164 µM)
- MIC Streptococcus pyogenes (GC 4563) (Streptococcus sp.): 0.25 µg/mL (≈ 0.164 µM)
- MIC Streptococcus pneumoniae (ATCC 6301) (Streptococcus sp.; strain ATCC 6301): 0.5 µg/mL (≈ 0.328 µM)
- MIC Streptococcus pneumoniae (GC 1894) (Streptococcus sp.; strain GC 1894): <0.12 µg/mL
- MIC Streptococcus pyogenes (GC 4563) (Streptococcus sp.; strain GC 4563): 0.25 µg/mL (≈ 0.164 µM)
- MIC Streptococcus agalactiae (GC 4564) (Streptococcus sp.; strain GC 4564): 0.25 µg/mL (≈ 0.164 µM)
- MIC Streptococcus pneumoniae (GC 4565) (Streptococcus sp.; strain GC 4565): 0.25 µg/mL (≈ 0.164 µM)
- MIC Enterococcus avium (GC 4558) (Enterococcus sp.; Enterococcus avium (GC 4558)): 2 µg/mL (≈ 1.31 µM)
- MIC Enterococcus faecalis (ATCC 29212) (Enterococcus sp.; Enterococcus faecalis (ATCC 29212)): 4 µg/mL (≈ 2.62 µM)
- MIC Enterococcus faecalis (GC 4552) (Enterococcus sp.; Enterococcus faecalis (GC 4552)): 4 µg/mL (≈ 2.62 µM)
- MIC Enterococcus faecalis (GC 4553) (Enterococcus sp.; Enterococcus faecalis (GC 4553)): 2 µg/mL (≈ 1.31 µM)
- MIC Enterococcus faecalis (GC 4554) (Enterococcus sp.; Enterococcus faecalis (GC 4554)): 4 µg/mL (≈ 2.62 µM)
- MIC Enterococcus faecalis (GC 6189) (Enterococcus sp.; Enterococcus faecalis (GC 6189)): 4 µg/mL (≈ 2.62 µM)
- MIC Enterococcus faecium (GC 2243) (Enterococcus sp.; Enterococcus faecium (GC 2243)): 2 µg/mL (≈ 1.31 µM)
- MIC Enterococcus faecium (GC 4556) (Enterococcus sp.; Enterococcus faecium (GC 4556)): 4 µg/mL (≈ 2.62 µM)
- MIC Enterococcus faecium (GC 4557) (Enterococcus sp.; Enterococcus faecium (GC 4557)): 1 µg/mL (≈ 0.655 µM)
- MIC Enterococcus avium (GC 4558) (Enterococcus sp.): 2 µg/mL (≈ 1.31 µM)
- MIC Enterococcus faecalis (ATCC 29212) (Enterococcus sp.): 4 µg/mL (≈ 2.62 µM)
- MIC Enterococcus faecalis (GC 2242) (Enterococcus sp.): 4 µg/mL (≈ 2.62 µM)
- MIC Enterococcus faecalis (GC 2691) (Enterococcus sp.): 4 µg/mL (≈ 2.62 µM)
- MIC Enterococcus faecalis (GC 3059) (Enterococcus sp.): 4 µg/mL (≈ 2.62 µM)
- MIC Enterococcus faecalis (GC 4552) (Enterococcus sp.): 4 µg/mL (≈ 2.62 µM)
- MIC Enterococcus faecalis (GC 4553) (Enterococcus sp.): 2 µg/mL (≈ 1.31 µM)
- MIC Enterococcus faecalis (GC 4554) (Enterococcus sp.): 4 µg/mL (≈ 2.62 µM)
- MIC Enterococcus faecalis (GC 6189) (Enterococcus sp.): 4 µg/mL (≈ 2.62 µM)
- MIC Enterococcus faecium (GC 2243) (Enterococcus sp.): 2 µg/mL (≈ 1.31 µM)
- MIC Enterococcus faecium (GC 4556) (Enterococcus sp.): 4 µg/mL (≈ 2.62 µM)
- MIC Enterococcus faecium (GC 4557) (Enterococcus sp.): 1 µg/mL (≈ 0.655 µM)
- MIC Enterococcus faecalis (GC 2242) (Enterococcus sp.; strain GC 2242): 4 µg/mL (≈ 2.62 µM)
- MIC Enterococcus faecalis (GC 2691) (Enterococcus sp.; strain GC 2691): 4 µg/mL (≈ 2.62 µM)
- MIC Enterococcus faecalis (GC 3059) (Enterococcus sp.; strain GC 3059): 4 µg/mL (≈ 2.62 µM)
- MIC Escherichia coli (ATCC 25922) (Escherichia coli): 64 µg/mL (≈ 41.9 µM)
- MIC Escherichia coli (GC 4559) (Escherichia coli): 32 µg/mL (≈ 21 µM)
- MIC Escherichia coli (GC 4560) (Escherichia coli): 2 µg/mL (≈ 1.31 µM)
